This passage reports LC50 and LD50 results from ChEMBL document CHEMBL3046276, “Preparation and activity study of new organophosphate insecticide candidates” (J Pestic Sci, 2011).

Structures are written as SMILES. Values after ≈ are worked out from the molar mass of the structure shown.

The subject of one data set is Ostrinia furnacalis. As to the kind of experiment: Insecticidal activity against Ostrinia furnacalis (Asian corn borer) after 24 hr by larvae-dipping method. The data set is classed as functional.
The subject of the next data set is Pieris rapae. As to the kind of experiment: Insecticidal activity against Pieris rapae after 24 hr by larvae-dipping method. The data set is classed as functional.
The nature of data set [1]: Toxicity in Rattus norvegicus Sprague-Dawley (rat) assessed as mortality measured after 24 hr administered orally through force feeding method. The data set is classed as organism-based. The following applies: in vivo, po.
The test system of a further data set is Apolygus lucorum. As to the kind of experiment: Insecticidal activity against Apolygus lucorum after 24 hr by larvae-dipping method. Format: functional.
In a further data set the test system is Chilo suppressalis. Briefly: Insecticidal activity against Chilo suppressalis (rice stem borer) fed on compound pre-treated rice leaves assessed as insect mortality measured after 3 days by leaf-dipping method. The data set is classed as functional.
In data set [2] the test system is Helicoverpa zea. Briefly: Insecticidal activity against Helicoverpa zea (corn earworm) fed on compound pre-treated cabbage leaves assessed as insect mortality measured after 24 hr by leaf-dipping method. The data set is classed as functional.
Data set [3] deals with Helicoverpa zea. Briefly: Insecticidal activity against Helicoverpa zea (corn earworm) fed on compound pre-treated cabbage leaves assessed as insect mortality measured after 48 hr by leaf-dipping method. Format: functional.
A further data set relates to Cnaphalocrocis medinalis. Briefly: Insecticidal activity against Cnaphalocrocis medinalis fed on compound pre-treated corn leaves assessed as insect mortality measured after 3 days by leaf-dipping method. The data set is classed as functional.

For `CCOP(=S)(OC)O/N=C(\C#N)c1ccccc1` (racemic), the median lethal concentration (LC50) in the data set on Ostrinia furnacalis came to 0.0698 µg/mL (≈ 0.246 µM); in the data set with Pieris rapae, 0.00734 µg/mL (≈ 0.0258 µM); with Apolygus lucorum it was 0.00568 µg/mL (≈ 0.02 µM). Moreover, the LD50 at 24 h in data set [1] was 1260 mg/kg.
For `CCOP(=S)(OC)Oc1nc(Cl)c(Cl)cc1Cl` (racemic), the LC50 came out at 0.27 µg/mL (≈ 0.802 µM) with Chilo suppressalis, 94.4 µg/mL (≈ 280 µM) with Helicoverpa zea [2], 46.3 µg/mL (≈ 138 µM) in the data set on Helicoverpa zea [3] and 1.06 µg/mL (≈ 3.15 µM) with Cnaphalocrocis medinalis. In data set [1], the LD50 at 24 h turned out to be 147 mg/kg.
Turning to `CCOP(=S)(OCC)Oc1nc(Cl)c(Cl)cc1Cl` [CHLORPYRIFOS], the LC50 in the data set on Chilo suppressalis was 2.61 µg/mL (≈ 7.44 µM); in the data set with Helicoverpa zea [2] it was 390 µg/mL (≈ 1110 µM); with Helicoverpa zea [3] it was 63.9 µg/mL (≈ 182 µM); in the data set with Cnaphalocrocis medinalis, 13.9 µg/mL (≈ 39.6 µM). Further, the LD50 at 24 h in data set [1] was 163 mg/kg.
Turning to `CCOP(=S)(OCC)O/N=C(\C#N)c1ccccc1` [PHOXIM], the median lethal concentration (LC50) was 0.0853 µg/mL (≈ 0.286 µM) with Ostrinia furnacalis, 0.0088 µg/mL (≈ 0.0295 µM) in the data set with Pieris rapae and 0.00789 µg/mL (≈ 0.0264 µM) in the data set on Apolygus lucorum. For the same compound, the LD50 at 24 h in data set [1] came out at 1200 mg/kg.

The LC50 is the concentration that kills 50% of the test population.
